Results published in patent EP1311531B1, “STEROID DERIVED ANTIBIOTICS” (Brigham Young University, priority 2000, dated 2002).
In brackets after ≈: the same amount, converted by molar mass. Read-outs that look alike come from different tables or passages of the source.

Legend:
[1] = system: Escherichia coli ATCC 25922; settings: ATCC25922
Method: FICs can be performed by checkerboard titrations of compounds in one dimension of a microtiter plate, and of antibiotics in the other dimension, for example. The FIC is calculated by looking at the impact of one antibiotic on the MIC of the other and vice versa. […] As used herein, FIC can be determined as follows: FIC = (MIC(compound in combination))/(MIC(compound alone)) + (MIC(antibiotic in combination))/(MIC(antibiotic alone)) [formula]
Aliquots of 1 mL of the suspension were added to test tubes containing 1 mL TSB and incrementally varied concentrations of cholic acid derivatives and/or erythromycin or novobiocin. […] Additionally, an alliquot from each of the samples showing no measurable turbidity was subcultured on TSA plates (alliquots were diluted to provide fewer than 300 CFU). Colonies that grew on the subculture after overnight incubation were counted and the number of CFU/mL in the samples were calculated. The calculated values were compared to the number of CFU/mL in the original inoculum.

E. coli (ATCC 10798) [2] = experiment: Sensitization to erythromycin or novobiocin (outer membrane permeabilization, FIC); assay type: cell-based, Escherichia coli; settings: E. coli (ATCC 10798); for MBC: Escherichia coli
Method: (§1) FICs can be performed by checkerboard titrations of compounds in one dimension of a microtiter plate, and of antibiotics in the other dimension, for example. The FIC is calculated by looking at the impact of one antibiotic on the MIC of the other and vice versa. […] Preferably, an FIC of less than 0.5 is obtained for synergism. As used herein, FIC can be determined as follows: FIC = (MIC(compound in combination))/(MIC(compound alone)) + (MIC(antibiotic in combination))/(MIC(antibiotic alone)) [formula]
(§2) Aliquots of 1 mL of the suspension were added to test tubes containing 1 mL TSB and incrementally varied concentrations of cholic acid derivatives and/or erythromycin or novobiocin. In the sensitization experiments, erythromycin or novobiocin were added 15 minutes later than the cholic acid derivatives. The samples were subjected to stationary incubation at 37°C for 24 hours. Sample turbidity was determined by measuring absorption at 760 nm (HP 8453 UV-Visible Chemstation, Hewlett Packard). Additionally, an alliquot from each of the samples showing no measurable turbidity was subcultured on TSA plates (alliquots were diluted to provide fewer than 300 CFU). Colonies that grew on the subculture after overnight incubation were counted and the number of CFU/mL in the samples were calculated. The calculated values were compared to the number of CFU/mL in the original inoculum.
They were also tested for the ability to permeabilize the outer membrane of Gram-negative bacteria, causing sensitization to hydrophobic antibiotics that cannot cross the outer membrane. The permeabilization of the outer membrane was measured using erythromycin and novobiocin.

[3] = system: Enterococcus faeculis ATCC 29212; experiment: MIC and MBC measurement; assay type: cell-based, Enterococcus faecalis; settings: ATCC29212
Method: (§3) General: Microorganisms. Reference strains were purchased from the American Type Culture Collection (Rockville, MD) or Bactrol disks from Difeo Laboratories (Detroit, MI). […] Bacterial strains were maintained on Mueller-Hinton agar plates, and Candida albicans was maintained on Sabouraud Dextrose agar plates.
(§4) Aliquots (20 mL) of the homogeneous solution were then poured in sterile plastic petri dishes (100 x 15 mm, Fisher Scientific). Solutions of compounds were made by dissolving the HCl salt of the respective compound into an appropriate amount of deionized and sterilized water followed by microfiltration.
as §2, with “In the sensitization experiments, erythromycin or novobiocin were added 15 minutes later than the cholic acid derivatives. The samples were subjected to stationary incubation at 37°C for 24 hours. Sample turbidity was determined by measuring absorption at 760 nm (HP 8453 UV-Visible Chemstation, Hewlett Packard).” left out

[4] = system: Staphylococcus aureus ATCC 25923; experiment: MIC and MBC measurement; assay type: cell-based; settings: ATCC25923, Table 10, Staphylococcus aureus ATCC 25923
Excerpt: (§5) General: Microorganisms. Reference strains were purchased from the American Type Culture Collection (Rockville, MD) or Bactrol disks from Difeo Laboratories (Detroit, MI). The following specific ATCC strains were used: 10798 Escherichia coli, 25922 Escherichia coli, 13883 Klebsiella pneumoniae, 27853 Pseudomonas aeruginosa, 14028 Salmonella typhimurium, 29212 Enterococcus faecalis, 25923 Staphylococcus aureus, 19615 Streptococcus pyogenes, and 90028 Candida albicans. Bacterial strains were maintained on Mueller-Hinton agar plates, and Candida albicans was maintained on Sabouraud Dextrose agar plates.
(§6) Tryptic soy broth (TSB) was made by dissolving 27.5 grams of tryptic soy broth without dextrose (DIFCO Laboratories) in 1 liter of deionized water and sterilizing at 121 °C for 15 minutes. Solid agar (TSA) plates were made by dissolving 6.4 grams of tryptic soy broth and 12 grams of agar (purified grade, Fischer Scientific) in 800 mL of deionized water and sterilizing at 121 °C for 20 minutes. Aliquots (20 mL) of the homogeneous solution were then poured in sterile plastic petri dishes (100 x 15 mm, Fisher Scientific). Solutions of compounds were made by dissolving the HCl salt of the respective compound into an appropriate amount of deionized and sterilized water followed by microfiltration.
as §2, with “inoculum. […]” for “inoculum.”

[5] = system: Escherichia coli ATCC 25922; experiment: MIC and MBC measurement; assay type: cell-based; settings: Escherichia coli; for MIC: read-out: MIC
Excerpt: as §5, §6
as §2, with “inoculum. […]” for “inoculum.”

[6] = system: Klebsiella pneumonia ATCC 13883; experiment: Sensitization to erythromycin, novobiocin or rifampicin (permeabilization, FIC); assay type: cell-based, Klebsiella pneumoniae
E. coli (ATCC 10798) [7] = experiment: MIC and MBC measurement; assay type: cell-based, Escherichia coli; settings: Escherichia coli, ATCC10798, Table 1, E. coli (ATCC 10798)
Method: as §3, §4
as §2, with “In the sensitization experiments, erythromycin or novobiocin were added 15 minutes later than the cholic acid derivatives. The samples were subjected to stationary incubation at 37°C for 24 hours. Sample turbidity was determined by measuring absorption at 760 nm (HP 8453 UV-Visible Chemstation, Hewlett Packard).” left out

[8] = system: Pseudomonas aeruginosa ATCC 27853; experiment: Sensitization to erythromycin, novobiocin or rifampicin (permeabilization, FIC); assay type: cell-based
Method: as §1, §2
(§7) Concentrations of 0.5, 1.0 or 3.0 µg/mL of these antibiotics were used, and the concentrations of the cholic acid derivatives required to inhibit bacterial growth of Gram-negative strains were determined.

[9] = system: Salmonella typhimurium ATCC 14028; experiment: as above; assay type: cell-based
Method: as §1, §2, §7

[10] = ATCC25922, Table 4, E. coli (ATCC 25922)
[11] = ATCC25922, Table 10, Escherichia coli ATCC 25922
[12] = Table 13, with rifampicin (order of b151), Klebsiella pneumonia ATCC 13883
[13] = Table 11, with erythromycin (order of b151)
[14] = Table 12, with novobiocin (order of b151)

MIC [3]: 4.9 µg/mL (≈ 7.82 µM) | MIC ([4]; read-out: MIC): 3.1 µg/mL (≈ 4.94 µM) | MIC [5, 10]: 25 µg/mL (≈ 39.9 µM) | MIC [5, 11]: 22 µg/mL (≈ 35.1 µM) | MIC (E. coli (ATCC 10798) [7]; read-out: MIC): 20 µg/mL (≈ 31.9 µM)
SMILES: C[C@H](CCCN(C)Cc1ccccc1)[C@H]1CC[C@H]2[C@@H]3[C@H](OCCN)C[C@@H]4C[C@H](OCCN)CC[C@]4(C)[C@H]3C[C@H](OCCN)[C@]12C [Compound 1]
concentration required for bacterial growth inhibition [1]: 0.35 µg/mL | MBC (E. coli (ATCC 10798) [2]; ATCC10798, Table 2, with erythromycin): 20 µg/mL | MBC (E. coli (ATCC 10798) [2]; ATCC10798, Table 3, with novobiocin): 34 µg/mL | concentration required to lower the MIC of erythromycin from 70 µg/mL to 1 µg/mL (E. coli (ATCC 10798) [2]; Table 2, with erythromycin): 2 µg/mL | MBC [3]: 50 µg/mL (≈ 79.7 µM) | MBC [4]: 5.7 µg/mL (≈ 9.09 µM) | MBC [5, 10]: 40 µg/mL (≈ 63.8 µM) | MBC [5, 11]: 22 µg/mL (≈ 35.1 µM) | FIC ([6]; ATCC13883): 0.072 | concentration required for bacterial growth inhibition ([6]; ATCC13883): 1.0 µg/mL | concentration required for bacterial growth inhibition ([6]; Table 12, with novobiocin (order of b151), Klebsiella pneumonia ATCC 13883): 4.7 µg/mL | FIC [6, 12]: 0.043 | concentration required for bacterial growth inhibition [6, 12]: 0.40 µg/mL | MBC (E. coli (ATCC 10798) [7]; read-out: MBC): 34 µg/mL (≈ 54.2 µM) | FIC ([8]; ATCC27853): 0.29 | concentration required for bacterial growth inhibition ([8]; ATCC27853): 6.6 µg/mL | MBC ([8]; Pseudomonas aeruginosa, ATCC27853, Table 7, P. aureginosa (ATCC 27853), with erythromycin): 45 µg/mL | concentration required to lower the MIC of erythromycin from 240 µg/mL to 5 µg/mL ([8]; Table 7, P. aureginosa (ATCC 27853), with erythromycin): 8 µg/mL | concentration required to lower the MIC of novobiocin from >500 µg/mL to 1 µg/mL ([8]; Table 8, P. aureginosa (ATCC 27853), with novobiocin): 6 µg/mL | concentration required for bacterial growth inhibition ([8]; Table 12, with novobiocin (order of b151), Pseudomonas aeruginosa ATCC 27853): 3.9 µg/mL | FIC ([8]; Table 13, with rifampicin (order of b151), Pseudomonas aeruginosa ATCC 27853^b (footnote b not given)): 0.096 | FIC [9, 13]: 0.19 | concentration required for bacterial growth inhibition [9, 13]: 3.6 µg/mL | FIC [9, 14]: 0.22 | concentration required for bacterial growth inhibition [9, 14]: 4.4 µg/mL
